Laboratory results from patent publication US11331289B2, “Antimicrobial composition” (priority 2017, dated 2022).

What was measured:
MRSP 16125 = assay: Time-killing curve, inoculum 10^6 CFU/ml (MIC 0.5 μg/ml); assay type: cell-based, Staphylococcus pseudintermedius
Procedure: The objective of this study is to assess in vitro the time-killing curves of oxyclozanide against four strains of Methicillin-Resistant Staphylococcus from dogs.
Two Methicillin-Resistant Staphylococcus aureus (MRSA) and two Methicillin-Resistant Staphylococcus pseudintermedius (MRSP) isolated from the clinics have been tested.
The assessment of time-killing curves has been realized by a broth macrodilution method (Mueller-Hinton II Broth).
Oxyclozanide is diluted in (DMSO) into sterile tubes in order to obtain the following concentrations from 800 to 6.25 μg/ml. Those concentrations and stock standard solution are then diluted (1/10) in Mueller-Hinton II Broth in order to obtain the following concentrations from […] (See Table 2).
Each operation is performed under sterile conditions. Each working standard solution (10*the final active ingredient concentration) is distributed in tubes (1 ml, for a final volume of 10 ml after addition of 9 ml of inoculum). One tube without active ingredient is used as growth control (Concentration=0).
Bacterial isolates are sub-cultured from one cryobead on Columbia agar supplemented with 5% of blood. Pure cultures are incubated during 18-24 hours at 37° C. Three to five isolated colonies of similar appearance are selected from a previous culture and transferred into tubes containing 9 ml of Mueller-Hinton II Broth. The broth is incubated during 12-18 hours at 37° C. 0.5 to 1 ml of this broth is inoculated to another Mueller-Hinton II Broth 9 ml tube which is incubated during 3 to 4 hours at 37° C. to reach the exponential growth phase. The bacterial inoculum grown exponential phase is suspended to an optical density of McFarland standard scale 0.5 equivalent to a bacterial density of 10^8 CFU/ml and then adjusted to a concentration of about 5.10^5 CFU/ml as indicated by the guideline CLSI M26-A and to a second inoculum tested: 10^6 CFU/ml.
9 ml of bacterial inoculum grown to exponential phase is added to 1 ml of active ingredient (or Mueller Hinton II Broth for the growth control). Tubes are incubated at 35° C. during 24 hours.
At times 0, 2, 4, 6 and 24 hours, 100 μl of broth of each tube is sampled and diluted in microplates:
Each well is re-cultured by streaking 10 μl on Columbia agar supplemented with 5% of blood. Plates are incubated at 37° C. during 18-24 hours incubation. Thus, residual bacterial concentrations are determined (CFU/ml). Results are expressed in log10 values of CFU/ml over-time in broth. Due to the procedure used, the minimal bacterial concentration that can be assessed is 10^2 CFU/ml.

[1] = tested on: Methicillin-Resistant Staphylococcus pseudintermedius (MRSP) 16125, 16127; assay: Oxyclo MIC of MRSP strains; assay type: cell-based

MIC ([1]; MRSP 16125): 0.5 µg/mL
MIC ([1]; MRSP 16127): 0.25 µg/mL
Structure (SMILES): O=C(Nc1cc(Cl)cc(Cl)c1O)c1c(O)c(Cl)cc(Cl)c1Cl [Oxyclozanide]
Counting results (MRSP 16125; 1 MIC, 0 h): 1.000E+06 CFU/ml
Counting results (MRSP 16125; 1 MIC, 2 h): 1.000E+06 CFU/ml
Counting results (MRSP 16125; 1 MIC, 4 h): 1.500E+05 CFU/ml
Counting results (MRSP 16125; 1 MIC, 6 h): 1.000E+05 CFU/ml
Counting results (MRSP 16125; 1 MIC, 24 h): 4.100E+06 CFU/ml
Counting results (MRSP 16125; 2 MIC, 0 h): 1.000E+06 CFU/ml
Counting results (MRSP 16125; 2 MIC, 2 h): 1.600E+03 CFU/ml
Counting results (MRSP 16125; 2 MIC, 4 h): 1.000E+02 CFU/ml
Counting results (MRSP 16125; 2 MIC, 6 h): 1.000E+02 CFU/ml
Counting results (MRSP 16125; 2 MIC, 24 h): 1.000E+02 CFU/ml
Counting results (MRSP 16125; 4 MIC, 0 h): 1.000E+06 CFU/ml
Counting results (MRSP 16125; 4 MIC, 2 h): 5.000E+02 CFU/ml
Counting results (MRSP 16125; 4 MIC, 4 h): 1.000E+02 CFU/ml
Counting results (MRSP 16125; 4 MIC, 6 h): 1.000E+02 CFU/ml
Counting results (MRSP 16125; 4 MIC, 24 h): 1.000E+02 CFU/ml
Counting results (MRSP 16125; 8 MIC, 0 h): 1.000E+06 CFU/ml
Counting results (MRSP 16125; 8 MIC, 2 h): 1.000E+02 CFU/ml
Counting results (MRSP 16125; 8 MIC, 4 h): 1.000E+02 CFU/ml
Counting results (MRSP 16125; 8 MIC, 6 h): 1.000E+02 CFU/ml
Counting results (MRSP 16125; 8 MIC, 24 h): 1.000E+02 CFU/ml
Counting results (MRSP 16125; 16 MIC, 0 h): 1.000E+06 CFU/ml
Counting results (MRSP 16125; 16 MIC, 2 h): 1.000E+02 CFU/ml
Counting results (MRSP 16125; 16 MIC, 4 h): 1.000E+02 CFU/ml
Counting results (MRSP 16125; 16 MIC, 6 h): 1.000E+02 CFU/ml
Counting results (MRSP 16125; 16 MIC, 24 h): 1.000E+02 CFU/ml
Time to obtain bactericidal effect at 4 MIC (MRSP 16125; 16125/10^6 CFU/ml, >=3 log10 decrease in CFU): 2 h
Counting results (MRSP 16125; ¼ MIC, 0 h): 1.000E+06 CFU/ml
Counting results (MRSP 16125; ¼ MIC, 2 h): 1.500E+06 CFU/ml
Counting results (MRSP 16125; ¼ MIC, 4 h): 1.000E+07 CFU/ml
Counting results (MRSP 16125; ¼ MIC, 6 h): 1.000E+08 CFU/ml
Counting results (MRSP 16125; ¼ MIC, 24 h): 2.600E+09 CFU/ml
Counting results (MRSP 16125; ½ MIC, 0 h): 1.000E+06 CFU/ml
Counting results (MRSP 16125; ½ MIC, 2 h): 1.800E+06 CFU/ml
Counting results (MRSP 16125; ½ MIC, 4 h): 2.800E+06 CFU/ml
Counting results (MRSP 16125; ½ MIC, 6 h): 3.400E+06 CFU/ml
Counting results (MRSP 16125; ½ MIC, 24 h): 1.900E+08 CFU/ml
